Molecules are shown by their SMILES. Where two headings read alike, the source gives them in different places.

One data set has as its target PDE10A1 (Homo sapiens (Human), UniProt Q9Y233). Kind of data set: Phosphodiesterase 10 (PDE10) Enzyme Activity Assay. Type of data set: biochemical. The conditions noted are these: read-out: IC50 (μM), n = 1, inhibition of PDE10A1; SPA, [3H]-cGMP substrate, maximal compound concentration 10 μM. As for the experimental part: Phosphodiesterase 10 (PDE10) Enzyme Activity Assay
To generate phosphodiesterase 10A1 (PDE10A1) protein, a full-length PDE10A1 clone corresponding to GenBank ID AAD32595.1 is cloned into pFastBac1 (Invitrogen). The PDE10A1 protein with a C-terminal FLAG-tag is expressed by baculoviral infection of insect cells and purified using anti-FLAG M2-agarose (Sigma) and size exclusion chromatography on a Superdex 200 column (GE Healthcare) and stored at −80° C. in small aliquots (20 mM Tris-HCl, Ph 7.5, 150 mM NaCl, 10% Glycerol).
PDE10A1 enzyme activities are measured with a yittrium silicate based scintillation proximity assay (SPA) that detects radioactive nucleotide monophosphates but not cyclic monophosphates. The assay buffer is composed of 50 mM Tris-HCl pH 7.5, 8 mM MgCl2, 3.4 mM EDTA, and 0.1% BSA (Sigma). Assays are conducted in 384 well plates (3706, Corning) in a total volume of 50 μl: comprised of 24 μl PDE10A1 enzyme, 1 μl test compound and 25 μl of cyclic nucleotide. Test compounds are diluted in pure DMSO using ten-point concentration response curves with a 3-fold dilution factor and 1 μl is acoustically dispensed into assay plates using the Echo555 (LabCyte). 24 μl PDE10A1 protein is incubated with 1 μl compound for 30 min before the reaction is started by the addition of [8-^3H]-cGMP substrate (6.5 Ci/mmol, Perkin Elmer). Final concentration of components is […], 80 nM (3H-cGMP), and 2% DMSO in assay buffer. Maximal compound concentration in the reaction mixture is 10 μM. Reactions are incubated for 60 min at RT before quenching and the addition of […] SPA beads (RPNQ0150, Perkin Elmer). Bead bound radioactivity (product) is quantified 12 h later with a Microbeta counter (Perkin Elmer). Data is normalized to % inhibition and IC50 values are calculated using the 4 parameter logistic equation as described (Campbell R. M.; Dymshitz, J.; Eastwood, B. J.; et al. “Data Standardization for Results Management.” In: Sittampalam, G. S.; Grossman, A.; Brimacombe, K.; et al.; eds. Assay Guidance Manual. Bethesda (Md.): Eli Lilly & Company and the National Center for Advancing Translational Sciences; 2004.).

Another data set has as its target hERG K+ channel (Homo sapiens (Human), UniProt Q12809). The data set can be described thus: Human hERG K+ Channel Affinity Radioligand Binding Assay. To be noted: pH 7.4, probe [3H]dofetilide, 3 nM, read-out: Percent inhibition (%) at 100 μM compound concentration, n = 1. As for the experimental part:
Human hERG K^+ Channel Affinity Radioligand Binding Assay
The affinity of compounds for the human hERG K^+ channel in transfected HEK-293 cells is evaluated in a radioligand binding assay as described herein. Cell membrane homogenates (about […]) are incubated for 60 min at 22° C. with 3 nM [^3H]dofetilide in the absence or presence of the test compound in a buffer containing 50 mM Tris-HCl (pH 7.4), 10 mM KCl and 1 mM MgCl2. The assay is carried out in a 96-well plate format with a volume of 200 μL, containing a maximum of 1% DMSO from initial solubilization of test compound. Following incubation, the samples are filtered rapidly under vacuum through glass fiber filters (GF/B, Packard) presoaked with 0.3% PEI and rinsed several times with ice-cold 50 mM Tris-HCl, 10 mM KCl and 1 mM MgCl2 using a 96-sample cell harvester (Unifilter, Packard). The filters are dried and then counted for radioactivity in a scintillation counter (Topcount, Packard) using a scintillation cocktail (Microscint 0, Packard).

Data set [1] is described as follows: Non-Human Primate (NHP) Pharmacokinetics. It counts as in vivo. The conditions noted are these: cynomolgus monkey, plasma, IV 0.5 mg/kg, fasted male cynomolgus monkeys; for Vd: steady-state, read-out: Volume of distribution. As for the experimental part:
Non-Human Primate (NHP) Pharmacokinetics:
The test compound is administered to fasted male cynomolgus monkeys intravenously (IV) at 0.5 mg/kg (using a dose volume of 1 mL/kg). Serial blood samples are collected at 0.08, 0.25, 0.5, 1, 2, 4, 8, 12, and 24 hours post dose for IV bolus. After treatment with an EDTA […], plasma is obtained by centrifugation and stored at −70° C. until analysis by LC-MS/MS. Test article concentration is determined in plasma. Noncompartmental analysis is used to calculate plasma clearance and steady-state volume of distribution.

Data set [2] relates to mice expressing the human GLP-1R. The data set can be described thus: In Vivo Intraperitoneal Glucose Tolerance Test in Human GLP-1R Knock-in Mice. The conditions noted are these: Mus musculus; read-out: Blood glucose lowering ED50. As to the method:
In Vivo Intraperitoneal Glucose Tolerance Test in Human GLP-1R Knock-in Mice
The potency of the exemplified compounds to lower the concentration of blood glucose in vivo is determined using mice expressing the human GLP-1R (NCBI accession number NP_002053) from the mouse Glp-1r genetic locus (Jun, L. S., et al., PLoS One. 2014 9:e93746). Overnight fasted mice are orally administered the test compound solubilized in 10% Kolliphor® (HS15) in Polyetheylene Glycol 400 (PEG400). One hour post-dose, the animals are administered glucose by intraperitoneal injection (2 g/kg), and blood glucose levels are measured intermittingly over the next two hours using glucometers. A dose range of the test compound is delivered, and area under the curve calculations for each dose group are determined and fit to a four-parameter logistic model for calculating in vivo potency as an ED50 with a 95% confidence interval.

The target in the next data set is human GLP-1R (Homo sapiens (Human), UniProt P43220). Kind of data set: Human GLP-1 Receptor HEK293 Cell cAMP Assay. To be noted: for EC50: EC50 (nM) ± SEM (n), intracellular cAMP response, relative EC50; for Emax: percent of maximal response with human GLP-1(7-36)NH2.
human GLP-1R, sequence (P43220 24-463): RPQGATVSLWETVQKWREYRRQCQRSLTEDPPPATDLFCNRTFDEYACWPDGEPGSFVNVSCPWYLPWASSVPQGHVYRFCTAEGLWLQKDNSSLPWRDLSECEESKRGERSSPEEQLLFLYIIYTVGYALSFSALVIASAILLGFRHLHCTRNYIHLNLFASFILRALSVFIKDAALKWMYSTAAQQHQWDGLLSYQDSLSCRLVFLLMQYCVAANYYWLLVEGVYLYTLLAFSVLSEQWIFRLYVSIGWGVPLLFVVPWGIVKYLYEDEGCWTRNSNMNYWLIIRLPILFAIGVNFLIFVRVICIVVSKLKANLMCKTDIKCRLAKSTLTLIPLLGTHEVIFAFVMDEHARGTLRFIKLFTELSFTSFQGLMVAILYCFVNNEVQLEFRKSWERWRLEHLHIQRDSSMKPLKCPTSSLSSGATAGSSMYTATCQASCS
The mark [3] stands for this setting: HEK293 cell line with 104 fmol/mg expression density of GLP-1R.
Setting [4] is: HEK293 cell line with 581 fmol/mg expression density of GLP-1R.
Where [5] appears, read: HEK293, read-out: Emax (%) ± SEM (n), HEK293 cell line with 104 fmol/mg expression density of GLP-1R.
Where [6] appears, read: HEK293, read-out: Emax (%) ± SEM (n), HEK293 cell line with 581 fmol/mg expression density of GLP-1R.

hERG K+ channel, sequence (Q12809 whole entry): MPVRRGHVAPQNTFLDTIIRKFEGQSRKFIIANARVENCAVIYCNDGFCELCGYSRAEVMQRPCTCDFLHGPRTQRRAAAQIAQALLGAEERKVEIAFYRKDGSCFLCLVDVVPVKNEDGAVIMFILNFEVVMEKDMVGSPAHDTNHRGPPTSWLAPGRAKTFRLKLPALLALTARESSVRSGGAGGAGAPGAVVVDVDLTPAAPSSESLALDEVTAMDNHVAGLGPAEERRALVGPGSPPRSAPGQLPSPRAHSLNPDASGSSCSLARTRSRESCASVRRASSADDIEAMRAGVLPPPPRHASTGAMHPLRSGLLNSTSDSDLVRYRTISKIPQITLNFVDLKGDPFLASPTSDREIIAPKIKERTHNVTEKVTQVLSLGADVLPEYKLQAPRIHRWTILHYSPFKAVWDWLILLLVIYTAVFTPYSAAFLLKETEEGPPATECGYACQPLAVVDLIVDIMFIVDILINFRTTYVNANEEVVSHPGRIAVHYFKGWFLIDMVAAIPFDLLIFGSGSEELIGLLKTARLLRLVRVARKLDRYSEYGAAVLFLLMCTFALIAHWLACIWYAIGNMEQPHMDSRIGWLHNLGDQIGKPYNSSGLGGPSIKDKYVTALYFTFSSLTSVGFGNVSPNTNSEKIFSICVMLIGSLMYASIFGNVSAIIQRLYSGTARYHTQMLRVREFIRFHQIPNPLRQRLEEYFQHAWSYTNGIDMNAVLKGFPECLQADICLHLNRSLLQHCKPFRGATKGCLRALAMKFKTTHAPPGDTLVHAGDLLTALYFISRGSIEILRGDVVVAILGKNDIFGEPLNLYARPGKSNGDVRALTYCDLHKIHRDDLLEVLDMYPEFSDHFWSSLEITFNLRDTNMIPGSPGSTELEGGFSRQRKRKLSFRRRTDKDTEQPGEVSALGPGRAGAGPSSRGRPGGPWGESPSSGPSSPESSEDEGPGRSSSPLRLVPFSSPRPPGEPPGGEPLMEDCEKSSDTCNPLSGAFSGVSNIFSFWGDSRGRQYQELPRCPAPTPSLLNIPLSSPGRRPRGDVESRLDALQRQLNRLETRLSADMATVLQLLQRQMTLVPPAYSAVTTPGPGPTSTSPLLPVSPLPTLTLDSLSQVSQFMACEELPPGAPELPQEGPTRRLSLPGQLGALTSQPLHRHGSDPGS
PDE10A1, sequence (Q9Y233 other isoform, or with tags, fused parts or gaps): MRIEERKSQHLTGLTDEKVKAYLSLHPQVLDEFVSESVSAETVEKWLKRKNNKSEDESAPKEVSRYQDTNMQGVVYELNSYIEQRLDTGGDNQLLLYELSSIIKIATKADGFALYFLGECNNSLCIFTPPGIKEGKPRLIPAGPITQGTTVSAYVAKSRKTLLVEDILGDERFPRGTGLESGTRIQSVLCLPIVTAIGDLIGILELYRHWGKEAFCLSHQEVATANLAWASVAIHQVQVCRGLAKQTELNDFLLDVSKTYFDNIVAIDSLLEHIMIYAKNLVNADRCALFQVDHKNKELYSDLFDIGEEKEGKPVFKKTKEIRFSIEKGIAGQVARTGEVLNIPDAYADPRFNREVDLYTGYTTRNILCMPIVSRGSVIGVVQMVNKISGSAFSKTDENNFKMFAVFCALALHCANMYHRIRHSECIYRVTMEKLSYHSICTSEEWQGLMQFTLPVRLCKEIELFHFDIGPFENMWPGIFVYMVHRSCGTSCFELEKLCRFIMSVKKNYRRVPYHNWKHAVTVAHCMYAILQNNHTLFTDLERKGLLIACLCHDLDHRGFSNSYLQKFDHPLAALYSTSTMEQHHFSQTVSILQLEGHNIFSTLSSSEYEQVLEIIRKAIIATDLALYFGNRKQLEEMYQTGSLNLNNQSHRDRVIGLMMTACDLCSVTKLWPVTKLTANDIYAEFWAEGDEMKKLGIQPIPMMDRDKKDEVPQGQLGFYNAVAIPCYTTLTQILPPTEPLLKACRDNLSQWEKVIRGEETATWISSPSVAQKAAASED

Usually IC50 stands for the concentration needed to halve the response being measured. As usually defined, the clearance is the rate of elimination divided by the concentration. In general, ED50 refers to the dose at which the effect has come halfway, by size or by number of responders. Take `N#Cc1ccc(COc2cccc(-c3ccc(Cc4nc5ccc(C(=O)O)cc5n4C[C@@H]4CCO4)c(F)c3)n2)c(F)c1` [Example 3, 2-[[4-[6-[(4-Cyano-2-fluoro-phenyl)methoxy]-2-pyridyl]-2-fluoro-phenyl]methyl]-3-[(2S)-oxetan-2-ylmethyl]benzimidazole-5-carboxylic Acid]: the concentration for half-maximal inhibition (IC50) at PDE10A1 was over 10 µM. In addition, at hERG K+ channel, the inhibition at 60 min, 100 µM came out at 37%. In addition, in data set [1], the clearance stood at 6 mL/min/kg and the Vd turned out to be 1.1 L/kg. The median effective dose (ED50) in data set [2] turned out to be 0.06 mg/kg.

As a reminder, the EC50 is the concentration giving half of the maximal effect. Lower therefore signals greater potency. Take `N#Cc1ccc(COc2cccc(-c3cc(F)c(Cc4nc5ccc(C(=O)O)cc5n4C[C@@H]4CCO4)c(F)c3)n2)c(F)c1` [Example 4, 2-[[4-[6-[(4-Cyano-2-fluoro-phenyl)methoxy]-2-pyridyl]-2,6-difluoro-phenyl]methyl]-3-[(2S)-oxetan-2-ylmethyl]benzimidazole-5-carboxylic Acid]: at PDE10A1, the IC50 is 5.41 µM. Also, the concentration for a half-maximal effect (EC50) was 9.59 ± 2.36 nM on human GLP-1R (setting [3]) and 3.99 ± 0.378 nM on human GLP-1R (setting [4]). Besides, the values for the Emax at human GLP-1R (setting [5]) and at human GLP-1R (setting [6]) were 78.3 ± 5.1% and 99.2 ± 4%, respectively.

For the molecule `Cc1cc(Cc2nc3ccc(C(=O)O)cc3n2C[C@@H]2CCO2)ccc1-c1cccc(OCc2ccc(C#N)cc2F)n1` [Example 1, 2-[[4-[6-[(4-Cyano-2-fluoro-phenyl)methoxy]-2-pyridyl]-3-methyl-phenyl]methyl]-3-[[(2S)-oxetan-2-yl]methyl]benzimidazole-5-carboxylic Acid], the IC50 on PDE10A1 was over 10 µM. For the same molecule, the inhibition at 60 min, 100 µM at hERG K+ channel came out at 0%. In addition, the values for the EC50 on human GLP-1R (setting [3]) and at human GLP-1R (setting [4]) were 20 ± 3.25 nM and 9.33 ± 1.36 nM, respectively. The Emax at human GLP-1R (setting [5]) worked out at 71.4 ± 2.26%; at human GLP-1R (setting [6]), 99.5 ± 2.53%. The molecule further gave a clearance in data set [1] of 13 mL/min/kg. Besides, the Vd in data set [1] was 1.2 L/kg. The ED50 in data set [2] was 0.09 mg/kg.

With `Cc1c(-c2cccc(OCc3ccc(C#N)cc3F)n2)ccc(Cc2nc3ccc(C(=O)O)cc3n2C[C@@H]2CCO2)c1F` [Example 5, 2-[[4-[6-[(4-Cyano-2-fluoro-phenyl)methoxy]-2-pyridyl]-2-fluoro-3-methyl-phenyl]methyl]-3-[[(2S)-oxetan-2-yl]methyl]benzimidazole-5-carboxylic Acid], the EC50 at human GLP-1R (setting [3]) stood at 23.6 ± 5.43 nM; on human GLP-1R (setting [4]), 6.45 ± 0.934 nM. Further, the Emax was 76.7 ± 3.88% on human GLP-1R (setting [5]) and 105 ± 2.43% on human GLP-1R (setting [6]).

As to `Cc1cc(Cc2nc3ccc(C(=O)O)cc3n2C[C@@H]2CCO2)c(F)cc1-c1cccc(OCc2ccc(C#N)cc2F)n1` [Example 2, 2-[[4-[6-[(4-Cyano-2-fluoro-phenyl)methoxy]-2-pyridyl]-2-fluoro-5-methyl-phenyl]methyl]-3-[[(2S)-oxetan-2-yl]methyl]benzimidazole-5-carboxylic Acid], the IC50 on PDE10A1 was 7.43 µM. Moreover, the inhibition at 60 min, 100 µM on hERG K+ channel turned out to be 54%. Moreover, the concentration for a half-maximal effect (EC50) on human GLP-1R (setting [3]) is 3.97 ± 0.61 nM; at human GLP-1R (setting [4]) it was 1.14 ± 0.315 nM. Moreover, the Emax at human GLP-1R (setting [5]) came out at 79.2 ± 3.2%; on human GLP-1R (setting [6]) it was 104 ± 4.35%. The molecule further came in with a clearance in data set [1] of 11 mL/min/kg. Also, the Vd in data set [1] came to 1.1 L/kg. For the same molecule, in data set [2], the ED50 came to 0.07 mg/kg.
